# Assay results from BindingDB's records for doi:10.1007/s002100000217 (Croissy-Sur-Seine Paris, 2000).
# Values joined by “and” are separate entries in the source; they are usually repeats but may differ in a detail not shown here. Identical values can stand only once.
# Molecular target: D(3) dopamine receptor (Homo sapiens, UniProt P35462)
# Sequence (P35462 as listed by the source): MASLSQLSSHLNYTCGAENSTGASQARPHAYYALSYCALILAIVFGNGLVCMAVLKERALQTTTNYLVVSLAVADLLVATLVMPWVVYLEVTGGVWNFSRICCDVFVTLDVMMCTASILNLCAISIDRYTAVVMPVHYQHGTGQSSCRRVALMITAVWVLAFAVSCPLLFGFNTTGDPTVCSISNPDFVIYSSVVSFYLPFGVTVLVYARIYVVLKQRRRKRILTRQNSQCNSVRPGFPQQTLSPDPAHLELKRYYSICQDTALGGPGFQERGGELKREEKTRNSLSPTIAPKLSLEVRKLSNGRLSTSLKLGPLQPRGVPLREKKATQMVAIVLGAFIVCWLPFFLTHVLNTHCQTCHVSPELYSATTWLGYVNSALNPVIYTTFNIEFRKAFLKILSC
row,Structure (SMILES),Ki
1,CCCN1CCO[C@@H]2c3cc(O)ccc3OC[C@H]21,2.14 nM and 7.59 nM and 3.55 nM
2,CCCN(CCC)C1CCc2cc3c(cc2C1)OCC3 (centres undefined),12.3 nM and 33.1 nM and 11.5 nM
3,CCCN(CCC)C1CCc2cc(CS(=O)(=O)c3ccc(OC)cc3)ccc2C1 (centres undefined) [GR218231],1.12 nM and 1.95 nM and 1.38 nM
4,N#Cc1ccc2c(c1)[C@H]1CN(CCCCNC(=O)c3ccc(-c4ccccc4)cc3)C[C@@H]1CO2 [S33084],0.302 nM and 0.933 nM and 0.372 nM
